ChEMBL document CHEMBL3244194, “beta-Adrenoceptor blocking activity of halogenated thienylethanolamine derivatives” (J Med Chem, 1977)
Active and inactive are the calls of the source. No cut-off for these calls is given here.

Experiments:
Rattus norvegicus [1] = experiment: In vivo inhibition of beta-adrenoceptor in Wistar rat assessed as inhibition of isoproterenol-induced tachycardia at 4 mg/kg, iv relative to control; type: functional
Rattus norvegicus [2] = experiment: In vivo inhibition of beta-adrenoceptor in Wistar rat assessed as decrease in heart rate at 4 mg/kg, iv relative to control; type: functional
[3] = Acute toxicity in iv dosed mouse; settings: in vivo
Felis catus [4] = experiment: In vivo inhibition of beta-adrenoceptor in cat assessed as inhibition of isoproterenol-induced tachycardia at 0.1 mg/kg, iv relative to control; type: functional
Felis catus [5] = experiment: In vivo inhibition of beta-adrenoceptor in cat assessed as inhibition of isoproterenol-induced tachycardia at 1 mg/kg, iv relative to control; type: functional
Felis catus [6] = experiment: In vivo inhibition of beta-adrenoceptor in cat assessed as inhibition of isoproterenol-induced hypotension at 0.1 mg/kg, iv relative to control; type: functional
Felis catus [7] = experiment: In vivo inhibition of beta-adrenoceptor in cat assessed as inhibition of isoproterenol-induced hypotension at 1 mg/kg, iv relative to control; type: functional
Cavia porcellus [8] = experiment: In vivo inhibition of beta-adrenoceptor in histamine-treated guinea pig assessed as inhibition of isoproterenol-induced bronchodilator effect at 0.1 mg/kg, iv administered 3 mins prior to histamine/isoproterenol challenge relative to control; type: functional
Mus musculus [9] = experiment: Local anesthetic activity in ICR Swiss mouse assessed as inhibition of pain reflex response at 0.5%, id relative to control; type: functional
Mus musculus [10] = experiment: Local anesthetic activity in ICR Swiss mouse assessed as inhibition of pain reflex response at 1%, id relative to control; type: functional, organism-based
Felis catus [11] = experiment: In vivo inhibition of beta-adrenoceptor in cat assessed as inhibition of isoproterenol-induced tachycardia at 0.05 mg/kg, iv relative to control; type: functional
Cavia porcellus [12] = experiment: In vivo inhibition of beta-adrenoceptor in histamine-treated guinea pig assessed as inhibition of isoproterenol-induced bronchodilator effect at 0.01 mg/kg, iv administered 3 mins prior to histamine/isoproterenol challenge relative to control; type: functional, organism-based; parameters: dose 0.01 mg/kg

| SMILES | inhibition in vivo at 4 mg/kg (Rattus norvegicus [1]) [%] | inhibition in vivo at 4 mg/kg (Rattus norvegicus [2]) [%] | LD50 [3] [mg/kg] | inhibition in vivo at 0.1 mg/kg (Felis catus [4]) [%] | inhibition in vivo at 1 mg/kg (Felis catus [5]) [%] | inhibition in vivo at 0.1 mg/kg (Felis catus [6]) [%] | inhibition in vivo at 1 mg/kg (Felis catus [7]) [%] | inhibition in vivo at 0.1 mg/kg (Cavia porcellus [8]) [%] | inhibition (INH) (Mus musculus [9]) [%] | local anesthetic activity (active/inactive) (Mus musculus [10]) | inhibition in vivo at 0.05 mg/kg (Felis catus [11]) [%] | inhibition (Cavia porcellus [12]) |
| --- | --- | --- | --- | --- | --- | --- | --- | --- | --- | --- | --- | --- |
| CC(C)NCC(O)c1sccc1Cl (racemic) | 0 | 0 | 38 | – | – | – | – | – | – | – | – | – |
| CC(C)(C)NCC(O)c1sccc1Cl (racemic) | 0 | 0 | 25 | – | – | – | – | – | – | – | – | – |
| CC(C)NCC(O)c1cc(Cl)cs1 (racemic) | 86 | 8 | 35 | 62 | 90 | 57 | 75 | – | – | – | – | – |
| CC(C)(C)NCC(O)c1cc(Cl)cs1 (racemic) | 53 | 6 | 38 | – | – | – | – | – | – | – | – | – |
| CC(C)NCC(O)c1sc(Cl)cc1Cl (racemic) | 70 | 28 | 35 | – | – | – | – | – | – | – | – | – |
| CC(C)(C)NCC(O)c1sc(Cl)cc1Cl (racemic) | 75 | 32 | 30 | 65 | 74 | 55 | 65 | – | – | – | – | – |
| CC(C)NCC(O)c1sc(Cl)c(Cl)c1Cl (racemic) | 90 | 20 | 35 | 58 | 100 | 52 | 85 | – | – | – | – | – |
| CC(C)(C)NCC(O)c1sc(Cl)c(Cl)c1Cl (racemic) | 89 | 26 | 40 | 69 | 98 | 87 | 100 | 100 | 52 | Active | – | – |
| CC(C)NCC(O)c1ccc(Br)s1.Cl (racemic) | 87 | 11 | 45 | 67.5 | 82 | 50 | 72 | – | 52 | Active | – | – |
| CC(C)(C)NCC(O)c1ccc(Br)s1 (racemic) | 55.5 | 8 | 27 | – | – | – | – | – | – | – | – | – |
| CC(C)NCC(O)c1sccc1Br (racemic) | 0 | 0 | 35 | – | – | – | – | – | – | – | – | – |
| CC(C)(C)NCC(O)c1sccc1Br (racemic) | 12.5 | 10 | 25 | – | – | – | – | – | – | – | – | – |
| CC(C)NCC(O)c1cc(Br)cs1 (racemic) | 89.5 | 11 | 42 | 70 | 90 | 53 | 82 | – | – | – | – | – |
| CC(C)(C)NCC(O)c1cc(Br)cs1 (racemic) | 50 | 17 | 35 | 33 | 67 | 0 | 50 | 25 | – | – | – | – |
| CC(C)NCC(O)c1cc(Br)c(Br)s1.Cl (racemic) | 100 | 25 | 45 | 92.5 | 100 | 75 | 100 | 40 | 72.5 | Active | 78 | inactive |
| CC(C)(C)NCC(O)c1cc(Br)c(Br)s1 (racemic) | 92 | 18 | 38 | 87.5 | 100 | 58 | 95 | 100 | 100 | Active | 61 | – |
| CC(C)NCC(O)c1sc(Br)cc1Br (racemic) | 77.5 | 14 | 35 | – | – | – | – | – | – | – | – | – |
| CC(C)(C)NCC(O)c1sc(Br)cc1Br (racemic) | 78 | 17 | 42 | 50 | 88 | 45 | 89 | – | 82 | Active | – | – |
| CC(C)NCC(O)c1scc(Br)c1Br.Cl (racemic) | 92 | 10 | 27 | – | – | – | – | – | – | – | – | – |
| CC(C)(C)NCC(O)c1scc(Br)c1Br (racemic) | 95 | 36 | 28 | 53 | 92 | 64 | 97 | 100 | 75 | Active | – | – |
| CC(C)NCC(O)c1sc(Br)c(Br)c1Br (racemic) | 75 | 10 | 35 | 50 | 95 | 65 | 88 | – | 40 | Active | – | – |
| CC(C)(C)NCC(O)c1sc(Br)c(Br)c1Br (racemic) | 90 | 12 | 32 | 72.5 | 100 | 77.5 | 100 | – | – | – | – | – |
| CC(C)NCC(O)COc1cccc2ccccc12 (stereo not given) [PROPRANOLOL] | 95 | 32 | – | 87 | 100 | 85 | 100 | 100 | 93 | Active | – | Active |
